In article PMC7611208 (Clinical cancer research : an official journal of the …, 2019) one finds IC50 data, which are given here for 1 compound.

The test addresses T1, UCHL1 (Homo sapiens, UniProt P09936).
T1 sequence (P09936 1-220): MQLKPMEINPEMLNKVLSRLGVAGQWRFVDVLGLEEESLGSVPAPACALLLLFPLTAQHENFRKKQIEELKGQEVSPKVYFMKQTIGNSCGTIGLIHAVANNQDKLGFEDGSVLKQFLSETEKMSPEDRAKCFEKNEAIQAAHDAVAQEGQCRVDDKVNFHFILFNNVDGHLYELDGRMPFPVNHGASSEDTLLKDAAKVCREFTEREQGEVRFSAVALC
The experiment in a line: in vitro DUB IC50 assay. Format: biochemical.

Usually IC50 stands for the concentration at which inhibition is half-maximal. High values mean weaker potency, low ones greater potency. With `N#CN1CC[C@H](C(=O)Nc2ncc(N3CCOCC3)s2)C1` [6RK73], the IC50 came out at 230 nM.
